Row | Compound | melting point
1 | CCCCCCCCCC(=O)OC1CCC2C3CCC4=CC(=O)CCC4C3CCC12C (stereo not drawn) | 118 °C
2 | OCCN1CCN(c2ncc(C(F)(F)F)cc2Cl)CC1 | 62 to 66 °C
3 | Cc1cc(Sc2nnc(N)s2)c2ccccc2n1 | 197 to 200 °C
4 | Cn1c(S)nnc1CC#N | 188 to 190 °C
5 | COC(=O)c1ccc(O)c(OC)c1 | 64 °C
6 | C=CCC1(CC(=C)Br)C(=O)NC(=O)NC1=O | 168 °C
7 | CCCCCCCCCCCCCCCCCCOCCOCCOCCOCCOCCOCCOCCOCCOCCOCCOCCOCCOCCOCCOCCOCCOCCOCCOCCOCCO | 44 to 46 °C
8 | CCCCNC(=O)C(c1cc2ccccc2c2ccccc12)N(Cc1ccco1)C(=O)Cc1ccccc1 (stereo not drawn) | 185 °C
9 | Nc1ccc(S(=O)(=O)c2ccc(NCC(=O)O)cc2)cc1 | 194 °C
10 | CCOC(=O)c1cccc(O)c1 | 74 °C
11 | C(=C/c1ccc(/N=C/c2ccccc2)cc1)/c1ccc(/N=C/c2ccccc2)cc1 | 104 °C
12 | O=C(CBr)c1cc(C(=O)CBr)cc(C(=O)CBr)c1 | 111 °C
13 | OCC(O)COc1ccccc1 (stereo not drawn) | 62.8 °C
14 | O=C(O)c1ccc(-c2ccccc2F)cc1 | 234 to 236 °C
15 | CC1(C)OC2COC3(CO)OC(C)(C)OC3C2O1 (stereo not drawn) | 95.5 to 97.5 °C
16 | Clc1cc2oc3ccc(Cl)c(Cl)c3c2cc1Cl | 210 °C
17 | O=C(Nc1cc2c(cc1/C=C/c1ccccc1)CC(c1ccccc1)N2C(=O)c1ccccc1)c1ccccc1 (stereo not drawn) | 250 °C
18 | Nc1ccc(SC(F)(F)F)c(Cl)c1 | 43 °C
19 | FC(F)(F)c1cc(CCl)cc(C(F)(F)F)c1 | 31 °C
20 | NNC(=O)c1ccc(-c2ccccc2F)cc1 | 153 to 155 °C
21 | O=C1OC(=O)c2ncccc21 | 134 to 138 °C
22 | C=CC#CC=C | -88 °C
23 | CC(=O)OC1CCC2(C)C(CCC3C4CCC(=NNS(=O)(=O)c5ccc(C)cc5)C4(C)CCC32)C1 (stereo not drawn) | 222 °C
24 | CC1=NN(c2ccccc2)C(=O)C1=Cc1c(O)c2cccc(C)c2[nH]c1=O | 171 °C

Row | Compound | melting point
25 | O=C(Cl)c1cc(-c2ccc(Cl)cc2)oc1C(F)(F)F | 135 to 137 °C
26 | O=C(O)c1cn(S(=O)(=O)c2ccccc2)c2ccccc12 | 232 °C
27 | BrCc1ccc(-c2cccs2)cc1 | 83 to 84 °C
28 | C=CC(OC(C)=O)OC(C)=O | -37.6 °C
29 | C[Si](C)(C)C#CC#C[Si](C)(C)C | 112 °C
30 | C=Cc1ccc2c(c1)OCCOCCOCCOCCOCCO2 | 57 to 60 °C
31 | Cn1nnc2cc(C(=O)Cl)ccc21 | 125 to 126 °C
32 | Cc1nc2ccccc2c(C(=O)O)c1C(=O)O | 225 to 233 °C
33 | O=C(c1cccs1)c1noc(-c2cccc3ccccc23)c1S(=O)(=O)c1ccccc1 | 124 °C
34 | CC1=CC=C(C(C)C)CC1 | -31.1 °C
35 | BrC(c1ccccc1)c1ccccc1 | 45 °C
36 | CC(C)N1CSc2nnc(-c3ccccc3)n2C1 | 225 to 226 °C
37 | CC(O)(c1cc2ccccc2o1)c1cc2ccccc2o1 | 91 to 92 °C
38 | Cc1ccc([N+](=O)[O-])cc1Cl | 66.5 °C
39 | CC(=O)N1CC(c2ccccc2)C=C1c1ccccc1 (stereo not drawn) | 105 °C
40 | COc1ccc(C(=O)O)cc1C | 195 to 197 °C
41 | CC(C)c1cccc(C(C)C)c1N | -45 °C
42 | CC1(c2ccccc2)CC(C(=NOCC2CO2)c2cc3ccccc3o2)C1 (stereo not drawn) | 159 to 160 °C
43 | CC(C)(C)c1cccc2ccccc12 | -11.3 °C
44 | O=C(c1ccc(Br)cc1)c1[nH]c2c(c1O)C(c1ccc(Br)cc1)c1c(c3ccccc3oc1=O)O2 (stereo not drawn) | 230 °C
45 | ON=C1CCCCCCC1 | 37 °C
46 | O=C(O)c1ccc(C(=O)O)nc1 | 254 °C
47 | CC12CCC3C(=CCc4cc(O)ccc43)C1CCC2O (stereo not drawn) | 174 °C
48 | Cc1cc(Cl)ccc1C(=O)O | 172 to 173 °C
